According to patent US6642215B2 (Leo Pharma A/S, priority 2001, dated 2003):

What was measured:
NF-κB = test: EMSA of NF-κB DNA binding activity in nuclear extracts of LPS-stimulated THP-1 cells; assay type: cell-based, human; conditions: 1 μM compound 24 h
Protocol: EMSA: For preparation of nuclear extracts, 10^7 cells were used at each experimental point. Following treatment of the THP-1 cells with either 1 μM of compound A for 24 h and stimulation with 1 μg/ml LPS at the indicated times, the cells were washed twice in PBS, and the cells were extracted for protein. The cells were resuspended in 500 μl buffer A (20 mM HEPES (pH 7.8), 0.1 mM EDTA, 10 mM KCL) with a protease inhibitor mixture (1 mM DTT, 0.5 mM Pefablock). Afterwards, the cells were incubated on ice for 15 min, then 30 μl 10% NP 40 was added and the cells were centrifuged at 5000×g. Each cell pellet was then resuspended in 50 μl buffer B (buffer A with 400 mM NaCl) and vortexed, followed by incubation for 15 min at 4° C. and centrifugation at 5000×g for 5 min at 4° C. The supernatant from each cell pellet was collected and the protein concentration quantified using the BCA-200 protein assay kit from Pierce (Rockford, Ill., USA). The nuclear extracts were stored at −80° C.
Double-stranded κB oligos (5′-AGTTGAGGGGACTTTCCCAGGC-3′ and the complement strand) were purchased from Promega. […] After electrophoresis at 4° C., the gel was dried, and the protein-DNA complexes were visualized and quantified on the STORM 860 Phospholmager using the ImageQuaNT software (available from Molecular Dynamics).

Colo-320 cells = test: DNA synthesis (tritiated thymidine incorporation) in Colo-320 cells; assay type: cell-based; conditions: Homo sapiens, 144 h incubation, mean ± SD of two to four experiments
Protocol: (§1) DNA synthesis: NYH SCLC, HT-1080, Colo-320, PC-3 and H460 cells (7.5×10^3 cells/ml) were seeded in tissue culture vessels and the test compound were added 2 h after plating. Following an incubation for 144 h tritiated thymidine (5 CI/mmol, Amersham Pharmacia Biotech) was added to the culture at the concentration of 1 μCi/ml, and the cells were incubated for additional 4 h. The incorporated thymidine was measured with a β-counter. Each compound concentration was tested in triplicate.

PC-3 cells = test: DNA synthesis (tritiated thymidine incorporation) in PC-3 cells; assay type: cell-based; conditions: Homo sapiens, 144 h incubation, mean ± SD of two to four experiments
Protocol: as §1

NYH Xenografts = test: NYH xenografts in nude mice, tumour growth; assay type: in vivo, NMRI nu/nu mice
Protocol: (§2) All of the animal experiments were conducted according to the guidelines and ethical standards of the Danish Committee for Animal Experiments. Female NMRI nu/nu mice 6 weeks of age were purchased from M&B (Ry, Denmark). The mice were allowed an acclimatisation period of 1-3 weeks before start of the experiments. The nude mice were housed in Scantainers under semi-sterile conditions and all handling of mice was performed in a laminar flow bench.
NYH Xenografts. NMRI nu/nu mice were injected with 1×10^7 cells in 0.2 ml media s.c. in both flanks and tumour growth was measured twice weekly. The tumour area was used as expression of the tumour size and was calculated from two perpendicular diameters measured with a digital caliper. Compound A was given for fourteen consecutive days by oral gavage from day 4-6 when the tumour size was 24-30 mm^2. Each treatment group consisted of 10 mice.
(§3) Statistical Methods In the animal models, tumour sizes were expressed by the mean of the trends in each treatment group. The trend is the linear increment or tumour size, where tumour size is the square root of the (mean) area of the tumour(s). Comparison with controls was expressed as T/C % and calculated as follows:
A=(overall mean tumour size at baseline+mean trend of treatment*intended days of treatment)
B=(overall mean tumour size at baseline+mean trend of control*intended days of treatment)
Overall mean tumour size at baseline=pooling all treatments this is the mean of all baseline values. For each mouse the baseline value is calculated as the square root of the (mean) area of the tumour(s).
Significance was tested with the Bonferroni correction. This correction is a method for adjusting (lowering) the significance level so the overall finding of one significant difference due to chance is around 5 percent.

HT 1080 Xenografts = test: HT 1080 xenografts in nude mice, tumour growth; assay type: in vivo, NMRI nu/nu mice; conditions: HT-1080 xenograft, 50 mg/kg, oral gavage
Protocol: as §2
HT 1080 Xenografts. NMRI nu/nu mice were injected with 2×10^6 cells in 0.2 ml media s.c. in each flank and tumour size was measured as described for the NYH model. Compound A was given for fourteen days by oral gavage from day 4 when the tumour size was 22-24 mm^2. Each treatment group consisted of 10 mice.
as §3
(§4) A=(overall mean tumour size at baseline+mean trend of treatment*intended days of treatment) […]
(§5) Overall mean tumour size at baseline=pooling all treatments this is the mean of all baseline values. For each mouse the baseline value is calculated as the square root of the (mean) area of the tumour(s). […]

Colo-320 DM = Colo-320 DM xenografts in nude mice, tumour growth; assay type: in vivo, NMRI nu/nu mice; conditions: Colo-320 xenograft, 50 mg/kg, oral gavage
Protocol: as §2
Colo-320 DM, NMRI nu/nu mice were injected with 5×10^6 cells in 0.2 ml media s.c. in each flank and tumour size was measured as mentioned above. Compound A was given for three weeks by oral gavage from day 8 when the tumour size was about 20 mm^2. Each treatment group consisted of 10 mice.
as §3, §4, §5

SMILES: N#CNC(=Nc1ccncc1)NCCCCCCOc1ccc(Cl)cc1 [compound A, N-(6-(4-chlorophenoxy)hexyl)-N′-cyano-N″-(4-pyridyl)guanidine]
- NF-κB DNA-binding activity suppressed compared to the control (NF-κB; after 0.5 to 4 h of LPS-stimulation): 2 fold
- NF-κB DNA-binding activity suppressed compared to the control (NF-κB; after 24 h of LPS-stimulation): 5 fold
- IC50 (Colo-320 cells): 5.4 ± 0.1 nM
- IC50 (PC-3 cells): 5.6 ± 0.3 nM
- In vivo xenografts in nude mice T/C (%) (NYH Xenografts; NYH SCLC xenograft, 50 mg/kg, oral gavage): −100%
- NYH tumor growth in vivo (T/C in %) (NYH Xenografts; nude mice with NYH SCLC tumours, 14 days of treatment with 20 mg/kg): −44%
- In vivo xenografts in nude mice T/C (%) (HT 1080 Xenografts): −77%
- In vivo xenografts in nude mice T/C (%) (Colo-320 DM): −50%
